According to patent US5618807A, “Method for preparing 17-substituted steroids useful in cancer treatment” (priority 1992, dated 1997):
Where two headings read alike, the source gives them in different places.

How the values were obtained:
C17-C20 lyase = target: T1, C17-C20 lyase (Homo sapiens, UniProt P05093); experiment: Determination of C17-C20 lyase inhibition (human testicular microsomes, 3H-17α-hydroxyprogesterone substrate); type: biochemical; settings: for concentration required to achieve 50% inhibition of lyase, compared with the 3-pyridyl (in words): relative to 3-pyridyl compound
T1 construct: A microsomal preparation was prepared essentially as described by S. E. Barrie et al; from tissue; host or cells: human testis microsomes
T1 sequence (P05093 1-508): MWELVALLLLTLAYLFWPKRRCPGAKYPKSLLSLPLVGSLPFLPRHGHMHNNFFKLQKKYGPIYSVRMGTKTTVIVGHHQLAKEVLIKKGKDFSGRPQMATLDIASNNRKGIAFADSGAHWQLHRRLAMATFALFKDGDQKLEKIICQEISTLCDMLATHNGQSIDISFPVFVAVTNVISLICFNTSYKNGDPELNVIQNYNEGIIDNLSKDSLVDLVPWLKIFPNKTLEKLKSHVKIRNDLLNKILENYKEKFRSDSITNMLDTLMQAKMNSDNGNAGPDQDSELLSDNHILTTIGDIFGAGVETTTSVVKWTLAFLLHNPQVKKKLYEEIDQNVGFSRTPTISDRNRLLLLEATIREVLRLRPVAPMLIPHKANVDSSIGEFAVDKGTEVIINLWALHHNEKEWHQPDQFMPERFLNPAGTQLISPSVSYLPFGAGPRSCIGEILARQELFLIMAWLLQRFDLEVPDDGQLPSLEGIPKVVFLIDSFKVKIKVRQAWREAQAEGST
Method: (§2) Human testes were obtained from previously untreated patients undergoing orchidectomy for prostatic cancer. The testes were decapsulated and stored in liquid nitrogen until use. […] The material was then thawed, finely chopped, and homogenised in 0.25M sucrose (5 ml/g wet weight) using a Potter homogeniser. The homogenate was centrifuged at 12000 g for 30 min, and then the microsomes were pelleted by spinning the supernatant at 100,000 g for 1 hr. The pellet was washed by being resuspended in 0.25M sucrose and repelleted. The microsomal pellet was then resuspended in 50 mM sodium phosphate pH 7.4/ glycerol (3/1 v/v) and stored in aliquots in liquid nitrogen.
(§3) The basic assay mixture was EDTA (0.2 mM), dithiothreitol (DTT; 0.1 mM), NADPH (0.25 mM), glucose 6-phosphate dehydrogenase (G6PDH; 6.25 μg/ml), MgCl2 (1 mM), glucose 6-phosphate (G6P; 10 mM) and the substrate, ^3 H-progesterone (3 μM) in sodium phosphate (50 mm), pH 7.4. The compounds under test were dissolved in 50% DMSO and the final concentrations of ethanol and DMSO were 1% each. The assay reaction was carried out for 1 hour and was terminated by the addition of 2 vols. of methanol-acetonitrile (2:1) containing approx. 100 μM unlabelled progesterone, 17α-hydroxyprogesterone, androstenedione, testosterone, and 16α-hydroxyprogesterone.
The mixture was the same as described above for the 17αt-hydroxylase except that the substrate was ^3 H-17α-hydroxy- progesterone.
The HPLC separation used for the lyase involved a mini-re-column "Uptight Guard Column" packed with PELL-ODS (pellicular octadecyl silica) and a 10 cm. main column "Apex C18" column packed with 5 μ, APEX-CAT silica.
The eluant was 38:12:50 methanol:acetonitrile:water flowing at 1 ml/min. The effluent was mixed 1:1 with Ecoscint A containing 5% methanol and 5% acetonitrile and the radioactivity was measured directly by a Berthold LB506C radiochemical detector. The lyase activity was measured as the production of androstenedione and testosterone.
The enzyme activity was measured in the presence of at least 4 concentrations of each compound. […] Data for all the other compounds were fitted by non-linear regression to the median effect equation of Chou, J. Theoret.

aromatase = target: T2, aromatase (Homo sapiens, UniProt P11511); type: biochemical; settings: human placental microsomes used; read-out: Michaelis constant Km
T2 construct: using human placental microsomes; from tissue; host or cells: human placental microsomes
T2 sequence (P11511 1-503): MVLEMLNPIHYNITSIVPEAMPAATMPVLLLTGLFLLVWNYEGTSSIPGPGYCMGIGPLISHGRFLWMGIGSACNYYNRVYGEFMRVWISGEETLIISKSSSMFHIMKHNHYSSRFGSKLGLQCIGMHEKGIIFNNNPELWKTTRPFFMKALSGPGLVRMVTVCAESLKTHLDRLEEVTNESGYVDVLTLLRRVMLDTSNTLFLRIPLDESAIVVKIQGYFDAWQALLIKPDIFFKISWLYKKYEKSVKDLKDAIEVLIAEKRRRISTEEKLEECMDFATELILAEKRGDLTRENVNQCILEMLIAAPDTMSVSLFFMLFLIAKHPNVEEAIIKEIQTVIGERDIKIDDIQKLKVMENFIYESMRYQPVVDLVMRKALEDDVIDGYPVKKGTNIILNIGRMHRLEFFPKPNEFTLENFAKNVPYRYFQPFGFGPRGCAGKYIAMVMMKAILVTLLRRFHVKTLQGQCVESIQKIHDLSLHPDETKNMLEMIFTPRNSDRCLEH
Method: Aromatase activity was determined by the method of A. B. Foster et all., J. Med. Chem. 26, 50-54 (1983), using human placental microsomes.

17α-Hydroxylase = target: T3, 17α-Hydroxylase (Homo sapiens, UniProt P05093); experiment: Determination of 17α-hydroxylase inhibition (human testicular microsomes, 3H-progesterone substrate); type: biochemical; settings: relative to 3-pyridyl compound
T3 construct: A microsomal preparation was prepared essentially as described by S. E. Barrie et al; from tissue; host or cells: human testis microsomes
T3 sequence (P05093 1-508): T1 sequence (P05093 1-508)
Method: as §2, §3
The separation of the steroids by HPLC was carried out using an "Uptight" guard column packed with 40-63 μm Nucleosil C18 and a 10 cm main column packed with 5 μm Nucleosil C18 and 60% methanol as eluant. The radioactivity in the peaks of interest was monitored on-line by mixing the HPLC effluent 1:1 with Ecoscint A (National Diagnostics) scintillation fluid, containing 25% acetonitrile, and passing the mixture through a Berthold LB506C radiochemical monitor. The hydroxylase activity was measured as the production of 17α-hydroxyprogesterone, androstenedione and testosterone.
The enzyme activity was measured in the presence of at least 4 concentrations of each compound. […]

[1] = design: species or system mice (male HWT); settings: mouse, in vivo, ip
Method: (§1) Male HWT mice, 12 weeks old, were treated daily for 2 weeks, with 5 animals per treatment group. The test compounds were the compound of Examples 1 and 4 (as representative of compounds of the invention having the pregenolone-like and progesterone-like skeletons respectively). Ketoconazole was also tested at three different doses. The test compounds were made up in 5% benzyl alcohol, 95% safflower oil, and were given i.p.. In addition to an untreated control group of animals, there was also a solvent control group which received the same volume of liquid as the test group (5 ml/kg) but no test compound. All animals were sacrificed 24 hours after the last injection. Blood was collected by cardiac puncture into heparinized tubes, and the plasma used for RIA (radio immunoassay) of testosterone and luteinising hormone. The following organs were removed and weighed: adrenals, prostate, seminal vesicles, testes, kidneys. There was no significant body weight loss in any group of mice during the experiments.
In Ketoconazole-treated animals, adhesions were found in 2/5,2/5,4/5 of the low/middle/top dose groups. […] The livers were brown in the middle/top dose groups.

[2] = test system: testosterone and luteinising hormone; experiment: In vivo endocrine test in mice (plasma testosterone and LH by RIA); design: species or system mice (male HWT); settings: 2 weeks
Method: Male HWT mice, 12 weeks old, were treated daily for 2 weeks, with 5 animals per treatment group. […] The test compounds were made up in 5% benzyl alcohol, 95% safflower oil, and were given i.p.. In addition to an untreated control group of animals, there was also a solvent control group which received the same volume of liquid as the test group (5 ml/kg) but no test compound. All animals were sacrificed 24 hours after the last injection. Blood was collected by cardiac puncture into heparinized tubes, and the plasma used for RIA (radio immunoassay) of testosterone and luteinising hormone.

Male HWT mice = type: in vivo; settings: for Kidneys mean weight ± standard error: 2 weeks
Method: as §1

C[C@]12CCC(=O)C=C1[C@@H](F)C[C@@H]1[C@@H]2CC[C@]2(C)C(c3cccnc3)=CC[C@@H]12 [Example 12, 6α-Fluoro-17-(3-pyridyl)androsta-4,16-dien-3-one]
IC50 (C17-C20 lyase; Table 2, approx. 4 nM enzyme, listed as Ex. 12): 2.2 nM

[3H][C@@H]1CC(=O)C=C2CC[C@@H]3[C@H](CC[C@]4(C)C(=O)CC[C@@H]34)[C@]21C [[1β-^3 H]androstenedione]
Km (aromatase): 0.039 µM

C[C@]12CC[C@H](O)CC1=CC[C@@H]1[C@@H]2CC[C@]2(C)C(Cc3ccccn3)=CC[C@@H]12 [Example 2-picolyl]
concentration required to achieve 50% inhibition of lyase, compared with the 3-pyridyl (in words) (C17-C20 lyase): far greater
concentration required to achieve 50% inhibition of hydroxylase, compared with the 3-pyridyl (in words) (17α-Hydroxylase): far greater

C[C@]12CCC(=O)C=C1CC[C@@H]1[C@@H]2CC[C@]2(C)C(c3cccnc3)=CC[C@@H]12 [Example 4, 17-(3-Pyridyl)androsta-4,16-dien-3-one]
post mortem examination: appearance of organs [1]: all organs looked normal
post mortem examination: deposits [1]: white deposits throughout the abdomen

CC(=O)O[C@H]1CC[C@@]2(C)C(=CC[C@@H]3[C@@H]2CC[C@]2(C)C(c4cccnc4)=CC[C@@H]32)C1 [Example 1, 3β-acetoxy-17-(3-pyridyl)androsta-5,16-diene]
Testosterone (mean ± standard error) ([2]; 0.02 mmol/kg/day i.p.): 2.7 ± 0.5 nM
Testosterone (mean ± standard error) ([2]; 0.1 mmol/kg/day i.p.): 0.2 ± 0.1 nM
Testosterone (mean ± standard error) ([2]; 0.5 mmol/kg/day i.p.): 0.1 ± 0.0 nM
Kidneys mean weight ± standard error (Male HWT mice; 0.02 mmol/kg/day i.p.): 604 ± 24 mg
Kidneys mean weight ± standard error (Male HWT mice; 0.1 mmol/kg/day i.p.): 500 ± 8 mg
Kidneys mean weight ± standard error (Male HWT mice; 0.5 mmol/kg/day i.p.): 449 ± 12 mg
post mortem examination: appearance of organs [1]: all organs looked normal
post mortem examination: deposits [1]: oil/white deposits i.p.

CC(=O)N1CCN(c2ccc(OCC3COC(Cn4ccnc4)(c4ccc(Cl)cc4Cl)O3)cc2)CC1 (centres unmarked) [Ketoconazole]
effect on adrenal weight (in words) (Male HWT mice; mouse, in vivo): increase in adrenal weight
post mortem examination: gut and peritoneal wall [1]: seemed to be stuck to the seminal vesicles

C[C@]12CC[C@H](O)CC1=CC[C@@H]1[C@@H]2CC[C@]2(C)C(c3ccncc3)=CC[C@@H]12 [Example 4-pyridyl]
concentration required to achieve 50% inhibition of lyase, compared with the 3-pyridyl (in words) (C17-C20 lyase): far greater
concentration required to achieve 50% inhibition of hydroxylase, compared with the 3-pyridyl (in words) (17α-Hydroxylase): far greater

C[C@]12CC[C@H](O)CC1=CC[C@@H]1[C@@H]2CC[C@]2(C)C(c3ccccn3)=CC[C@@H]12 [Example 2-Pyridyl]
concentration required to achieve 50% inhibition of lyase, compared with the 3-pyridyl (in words) (C17-C20 lyase): far greater
concentration required to achieve 50% inhibition of hydroxylase, compared with the 3-pyridyl (in words) (17α-Hydroxylase): far greater
